Assay results published in ChEMBL document CHEMBL1221336, “Xanthones with neuraminidase inhibitory activity from the seedcases of Garcinia mangostana” (Bioorg Med Chem, 2010).

How the values were obtained:
Sialidase [1] = biological target: T1, Sialidase (Clostridium perfringens, UniProt P10481); assay: Competitive inhibition of Clostridium perfringens neuraminidase by fluorimetry
T1 sequence (P10481 whole entry): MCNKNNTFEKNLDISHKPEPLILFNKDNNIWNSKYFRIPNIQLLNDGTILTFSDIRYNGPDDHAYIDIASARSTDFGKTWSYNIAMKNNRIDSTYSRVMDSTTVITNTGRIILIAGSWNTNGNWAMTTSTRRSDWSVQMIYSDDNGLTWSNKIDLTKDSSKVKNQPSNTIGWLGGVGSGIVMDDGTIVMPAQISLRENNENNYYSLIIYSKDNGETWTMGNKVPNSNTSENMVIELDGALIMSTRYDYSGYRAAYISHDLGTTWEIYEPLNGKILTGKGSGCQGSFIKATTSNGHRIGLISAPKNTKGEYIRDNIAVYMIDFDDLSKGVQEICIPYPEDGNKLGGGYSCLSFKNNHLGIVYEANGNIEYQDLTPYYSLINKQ

Sialidase [2] = biological target: T1, Sialidase; assay: Inhibition of Clostridium perfringens neuraminidase by fluorimetry; details: for Ki: read-out: Ki(app)
[3] = biological target: T2, Sialidase (Clostridium perfringens) (UniProt P10481); assay: Inhibition of Clostridium perfringens neuraminidase at 1.56 uM by fluorimetry; details: TDE = time-dependent effect
T2 sequence (whole entry): T1 sequence (P10481 whole entry)

COc1c(O)cc2oc3cc4c(c(O)c3c(=O)c2c1CC=C(C)C)CC(O)C(C)(C)O4 (stereo unspecified) [MANGOSTANOL]
Ki (Sialidase [1]): 6.5 µM | IC50 (Sialidase [2]): 21.5 µM

C=C(C)C1Cc2c(c(O)cc3oc4cc(O)c(CC=C(C)C)c(O)c4c(=O)c23)O1 (stereo unspecified) [MANGOSTENONE G]
Ki (Sialidase [1]): 6.8 µM | IC50 (Sialidase [2]): 14.6 µM

COc1c(O)cc2oc3cc4c(c(O)c3c(=O)c2c1CC=C(C)C)C=CC(C)(C)O4 [MANGOSTANIN]
Ki (Sialidase [1]): 5.9 µM | IC50 (Sialidase [2]): 20.1 µM

COc1c(O)cc2oc3cc(O)c(CC=C(C)C)c(O)c3c(=O)c2c1CCC(C)(C)O [GARCINONE D]
Ki (Sialidase [1]): 3.3 µM | IC50 (Sialidase [2]): 5.7 µM

C=C(C)C1Cc2c(cc3oc4cc(O)c(OC)c(CC=C(C)C)c4c(=O)c3c2O)O1 (stereo unspecified) [MANGOSTENONE F]
Ki (Sialidase [1]): 7.6 µM | IC50 (Sialidase [2]): 24.8 µM

COc1cc2oc3cc(O)c(OC)c(CC=C(C)C)c3c(=O)c2c(O)c1CC=C(C)C
Ki (Sialidase [1]): 24.9 µM | IC50 (Sialidase [2]): 60.7 µM

COc1cc2oc3c(O)cccc3c(=O)c2c(O)c1CC=C(C)C [CUDRAXANTHONE]
Ki (Sialidase [1]): 35.2 µM | IC50 (Sialidase [2]): 65.7 µM

CC(C)=CCc1c(O)cc2oc3cc(O)c(O)c(CC=C(C)C)c3c(=O)c2c1O
inhibition [3]: tde | Ki (Sialidase [1]): 0.8 µM | IC50 (Sialidase [2]): 2.2 µM | Ki (Sialidase [2]): 7.41 µM

CC(C)=CCc1c(O)c(CC=C(C)C)c2oc3c(O)ccc(O)c3c(=O)c2c1O [GARTANIN]
inhibition [3]: tde | Ki (Sialidase [1]): 3.6 µM | IC50 (Sialidase [2]): 2.9 µM | Ki (Sialidase [2]): 0.437 µM

COc1c(O)cc2oc3cc(O)c(CC=C(C)C)c(O)c3c(=O)c2c1CC=C(C)C [MANGOSTIN]
Ki (Sialidase [1]): 5.8 µM | IC50 (Sialidase [2]): 12.2 µM

O=c1c(O)c(-c2ccc(O)c(O)c2)oc2cc(O)cc(O)c12 [QUERCETIN]
IC50 (Sialidase [2]): 9.8 µM

CC(C)=CCC/C(C)=C/Cc1c(O)cc2oc3c(O)ccc(O)c3c(=O)c2c1O [SMEATHXANTHONE A]
inhibition [3]: tde | Ki (Sialidase [1]): 0.15 µM | IC50 (Sialidase [2]): 0.27 µM | Ki (Sialidase [2]): 0.0447 µM

CC(C)=CCc1c(O)c(CC=C(C)C)c2oc3c(O)cccc3c(=O)c2c1O [8-DEOXYGARTANIN]
Ki (Sialidase [1]): 15.5 µM | IC50 (Sialidase [2]): 29.2 µM
